Consider 35 compounds from ChEMBL document CHEMBL1140004, “2-Arylimino-5,6-dihydro-4H-1,3-thiazines as a new class of cannabinoid receptor agonists. Part 1: discovery of CB2 receptor selective compounds” (Bioorg Med Chem Lett, 2007).

Usually IC50 stands for the midpoint of a concentration-inhibition curve. As usually defined, the Ki is the dissociation constant of the complex between target and ligand, obtained from inhibition or displacement. As usually defined, the AUC is concentration integrated over time. Read a low AUC as less exposure. The term half-life denotes the time in which the quantity being followed falls by half. A lower half-life goes with fast loss. One may read the bioavailability as dose-corrected exposure relative to a reference, in per cent. Low readings indicate little systemic uptake, high ones much systemic uptake.

Molecules are shown by their SMILES. Active and inactive are the calls of the source. The calls are words filed in the database; no cut-off is given here. Some results are limits rather than exact numbers.

The target in series [1] is T1, Cannabinoid receptor 1 (Homo sapiens, UniProt P21554). Put plainly: Agonist activity at human CB1 in CHO cells assessed as inhibition of cAMP production. Format: functional, cell-based. (Cyclic AMP is a second messenger, typically raised through Gs and lowered through Gi signalling.)
Series [2] has as its target T2, Cannabinoid receptor 2 (Homo sapiens, UniProt P34972). Put plainly: Agonist activity at human CB2 in CHO cells assessed as inhibition of cAMP production. Format: functional, cell-based.
In series [3] the target is Cannabinoid receptor 2 (Mus musculus, UniProt P47936). Put plainly: Displacement of [3H]CP-55940 from mouse CB2 receptor. (Loss of bound radioactivity is the signal in a displacement assay; it reports binding, not function.)
Series [4] has as its target T2, Cannabinoid receptor 2. Put plainly: Displacement of [3H]CP-55940 from human CB2 receptor.
Series [5] concerns the target Cannabinoid receptor 1 (Mus musculus, UniProt P47746). Put plainly: Displacement of [3H]CP-55940 from mouse CB1 receptor.
For series [6], the target named is T1, Cannabinoid receptor 1. Put plainly: Displacement of [3H]CP-55940 from human CB1 receptor.
A short description of series [7]: AUC in rat at 30 mg/kg, po. Format: ADME, organism-based. Also noted: dose 30 mg/kg, route oral. Particulars: plasma.
In series [8] the test system is Mus musculus. Put plainly: Analgesic activity in sc dosed ICR mouse right hind paw of assessed as formalin induced licking. The series is classed as functional, organism-based.
Series [9] deals with Mus musculus. Put plainly: Analgesic activity in sc dosed ICR mouse right hind paw in presence of SR-144528 assessed as inhibition of formalin induced licking. The series is classed as functional, organism-based.
Series [10] is described as follows: Half life in rat at 2 mg/kg, iv or 30 mg/kg, po. Format: ADME, organism-based. Particulars: in vivo.
Series [11] in a line: Clearance in rat at 2 mg/kg, iv or 30 mg/kg, po. The series is classed as ADME, organism-based. Particulars: in vivo.
Series [12] in a line: Bioavailability in rat at 30 mg/kg, po. The series is classed as ADME, organism-based. The settings on record: in vivo.

T2 sequence (P34972 whole entry): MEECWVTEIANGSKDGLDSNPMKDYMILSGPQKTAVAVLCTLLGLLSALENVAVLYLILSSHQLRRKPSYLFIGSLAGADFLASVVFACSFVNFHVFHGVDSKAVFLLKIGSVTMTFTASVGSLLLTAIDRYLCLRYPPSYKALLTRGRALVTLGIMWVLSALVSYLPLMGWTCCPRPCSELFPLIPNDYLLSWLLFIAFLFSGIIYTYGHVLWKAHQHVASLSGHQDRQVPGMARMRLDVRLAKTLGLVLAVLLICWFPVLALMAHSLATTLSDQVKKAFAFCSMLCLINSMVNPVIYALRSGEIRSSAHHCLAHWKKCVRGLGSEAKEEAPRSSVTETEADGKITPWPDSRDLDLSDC
Cannabinoid receptor 2 (Mus musculus, UniProt P47936), sequence (P47936 whole entry): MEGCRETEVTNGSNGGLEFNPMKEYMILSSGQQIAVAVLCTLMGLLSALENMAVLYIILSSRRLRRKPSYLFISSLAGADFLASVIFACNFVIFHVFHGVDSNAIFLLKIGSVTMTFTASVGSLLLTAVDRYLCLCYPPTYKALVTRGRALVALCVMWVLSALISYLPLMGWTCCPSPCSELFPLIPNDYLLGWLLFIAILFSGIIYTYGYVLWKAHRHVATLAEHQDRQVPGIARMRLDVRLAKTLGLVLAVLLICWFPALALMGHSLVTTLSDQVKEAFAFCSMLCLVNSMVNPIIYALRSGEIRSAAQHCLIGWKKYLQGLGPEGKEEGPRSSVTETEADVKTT
T1 sequence (P21554 whole entry): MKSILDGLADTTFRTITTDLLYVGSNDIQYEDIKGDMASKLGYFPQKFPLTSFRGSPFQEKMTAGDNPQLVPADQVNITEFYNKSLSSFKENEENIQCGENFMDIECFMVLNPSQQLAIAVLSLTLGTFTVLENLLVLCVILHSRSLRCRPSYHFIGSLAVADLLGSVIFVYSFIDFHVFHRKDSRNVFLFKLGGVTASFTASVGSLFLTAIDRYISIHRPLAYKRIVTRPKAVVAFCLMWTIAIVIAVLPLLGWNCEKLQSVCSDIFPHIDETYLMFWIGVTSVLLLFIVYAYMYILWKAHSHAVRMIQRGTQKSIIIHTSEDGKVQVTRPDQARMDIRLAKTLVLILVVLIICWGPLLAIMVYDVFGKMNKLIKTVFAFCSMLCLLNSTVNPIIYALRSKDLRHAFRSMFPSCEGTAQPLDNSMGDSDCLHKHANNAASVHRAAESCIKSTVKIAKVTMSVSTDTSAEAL
Cannabinoid receptor 1 (Mus musculus, UniProt P47746), sequence (P47746 whole entry): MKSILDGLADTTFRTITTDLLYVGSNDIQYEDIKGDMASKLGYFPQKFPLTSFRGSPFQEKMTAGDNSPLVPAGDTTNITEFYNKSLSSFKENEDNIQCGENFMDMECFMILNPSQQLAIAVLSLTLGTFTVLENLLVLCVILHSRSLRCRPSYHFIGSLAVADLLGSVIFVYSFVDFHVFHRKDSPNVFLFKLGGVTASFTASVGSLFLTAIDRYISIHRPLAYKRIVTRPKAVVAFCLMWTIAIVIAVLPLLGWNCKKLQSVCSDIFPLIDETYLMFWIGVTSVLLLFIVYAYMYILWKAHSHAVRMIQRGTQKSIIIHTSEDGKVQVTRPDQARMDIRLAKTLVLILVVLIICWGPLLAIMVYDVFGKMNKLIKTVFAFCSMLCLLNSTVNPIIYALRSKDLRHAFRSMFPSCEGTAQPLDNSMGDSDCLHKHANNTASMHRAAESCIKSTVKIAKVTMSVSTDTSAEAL

As to `CCOC(=O)N1CC(C)(C)CS/C1=N\c1ccccc1C(C)C`, the IC50 was greater than 5000 nM at Cannabinoid receptor 1 [1] and 322 nM at Cannabinoid receptor 2 [2]. For the same compound, the Ki is 187 nM at Cannabinoid receptor 2 [3], 428 nM on Cannabinoid receptor 2 [4], greater than 5000 nM on Cannabinoid receptor 1 [5] and greater than 5000 nM on Cannabinoid receptor 1 [6].

`CSC(=S)N1CCC(C)S/C1=N\c1ccccc1C(C)C` (stereo unspecified) registered a Ki at Cannabinoid receptor 2 [4] greater than 5000 nM.

`CCN1CC(C)(C)CS/C1=N\c1ccccc1C(C)C`: the Ki on Cannabinoid receptor 2 [4] stood at 4880 nM.

At Cannabinoid receptor 2 [4], `CSC(=S)N1CC(C)(C)CS/C1=N\c1ccccc1Cl` gave a Ki of 722 nM. Against the preceding compound, the Ki is about 6.8-fold lower.

Regarding `COc1ccccc1/N=C1\SCC(C)(C)CN1C(=S)SC`, affinity on Cannabinoid receptor 2 [4] was put at a Ki of 18 nM.

Take `CCSC(=O)N1CC(C)(C)CS/C1=N\c1ccccc1C(C)C`: the affinity on Cannabinoid receptor 2 [4], expressed as Ki, was 48 nM.

The compound `CSC(=S)N1CCCS/C1=N\c1ccccc1C(C)C` registered a Ki at Cannabinoid receptor 2 [4] of 1580 nM.

As to `CSC(=S)N1CC(C)(C)CS/C1=N\c1ccccc1C(F)(F)F`, the affinity at Cannabinoid receptor 2 [4], expressed as Ki, was 141 nM. Compared with the last compound, the Ki is about 11-fold lower.

In the case of `CCCSC(=S)N1CC(C)(C)CS/C1=N\c1ccccc1C(C)C`, the affinity on Cannabinoid receptor 2 [4] corresponds to a Ki of 119 nM.

Regarding `CCc1ccccc1/N=C1\SCC(C)(C)CN1C(=S)SC`, the Ki on Cannabinoid receptor 2 [4] was found to be 54 nM.

For the compound `CCNC(=S)N1CC(C)(C)CS/C1=N\c1ccccc1C(C)C`, on Cannabinoid receptor 2 [4], the Ki is greater than 5000 nM.

In turn, `CCSC(=S)N1CC(C)(C)CS/C1=N\c1ccccc1C(C)C` registered a Ki at Cannabinoid receptor 2 [4] of 35 nM. That is a double-digit nanomolar value.

The compound `CSC(=S)N1CC(C)(C)CS/C1=N\c1c(C)cccc1C` returned a Ki on Cannabinoid receptor 2 [4] greater than 5000 nM.

In the case of `CCOc1ccccc1/N=C1\SCC(C)(C)CN1C(=S)SC`, the inhibition constant (Ki) on Cannabinoid receptor 2 [4] was 84 nM. In other words, the double-digit nanomolar range.

`CSC(=S)N1CC(C)(C)CS/C1=N\c1cccc(C(C)C)c1` registered a Ki on Cannabinoid receptor 2 [4] of 33 nM.

Regarding `CSC(=S)N1CC(C)(C)CS/C1=N\c1ccc(C(C)C)cc1`, the Ki on Cannabinoid receptor 2 [4] was 22 nM.

For the compound `CSC(=S)N1CC(C)(C)CS/C1=N\c1ccccc1F`, the Ki on Cannabinoid receptor 2 [4] came to 252 nM.

Consider `CC(C)c1ccccc1/N=C1\SCC(C)(C)CN1Cc1ccccc1`, for which the Ki on Cannabinoid receptor 2 [4] was determined as 1360 nM.

Compound `CSC(=S)N1CC(C)(C)CS/C1=N\c1ccccc1C` showed a Ki on Cannabinoid receptor 2 [4] of 202 nM. This Ki is about 6.7-fold lower than that of the compound before.

`CSC(=S)N1CC(C)(C)CS/C1=N\c1ccccc1C(C)C`: the IC50 was greater than 5000 nM on Cannabinoid receptor 1 [1] and 6.1 nM on Cannabinoid receptor 2 [2]. In addition, the AUC in series [7] amounted to 1100 ng·h/mL. In the series with Mus musculus [8], the result was Active. Besides, the Ki was 9 nM at Cannabinoid receptor 2 [3], 9 nM on Cannabinoid receptor 2 [4], 2020 nM at Cannabinoid receptor 1 [5] and greater than 5000 nM on Cannabinoid receptor 1 [6]. Also, the outcome in the series with Mus musculus [9] was inactive. In series [10], this compound showed a half-life of 36 min. The same compound came in with a clearance in series [11] of 83.3 mL/min/kg. The bioavailability in series [12] was 18%.

For `CSC(=S)N1CC(C)CS/C1=N\c1ccccc1C(C)C` (stereo unspecified), affinity at Cannabinoid receptor 2 [4] was put at a Ki of 98 nM.

Compound `CSC(=S)N1/C(=N/c2ccccc2C(C)C)SCCC1C` (stereo unspecified) had a Ki at Cannabinoid receptor 2 [4] greater than 5000 nM.

At Cannabinoid receptor 2 [4], `CC(C)SC(=S)N1CC(C)(C)CS/C1=N\c1ccccc1C(C)C` showed a Ki of 275 nM.

With `CCOC(=S)N1CC(C)(C)CS/C1=N\c1ccccc1C(C)C`, the Ki at Cannabinoid receptor 2 [4] is 230 nM. This Ki and that of the compound before are within 1.5-fold of each other.

As for `CCNC(=O)N1CC(C)(C)CS/C1=N\c1ccccc1C(C)C`, at Cannabinoid receptor 2 [4], the Ki was greater than 5000 nM.

For `CSC(=S)N1CC(C)(C)CS/C1=N\c1ccccc1`, the inhibition constant (Ki) on Cannabinoid receptor 2 [4] is 316 nM.

As to `CCC(=O)N1CC(C)(C)CS/C1=N\c1ccccc1C(C)C`, the Ki on Cannabinoid receptor 2 [4] was 2090 nM. Against the preceding compound, the Ki is about 6.6-fold higher.

As for `CCCc1ccccc1/N=C1\SCC(C)(C)CN1C(=S)SC`, at Cannabinoid receptor 2 [4], the Ki is 57 nM.

Compound `Cc1c(C(=O)c2cccc3ccccc23)c2cccc3c2n1[C@H](CN1CCOCC1)CO3` [WIN-552122] showed a Ki at Cannabinoid receptor 2 [3] of 6 nM. That is a single-digit nanomolar value.

Compound `CCCN1CC(C)(C)CS/C1=N\c1ccccc1C(C)C` had a Ki at Cannabinoid receptor 2 [4] of 915 nM.

Compound `CC(C)c1ccccc1/N=C1/NCC(C)(C)CS1` came in with a Ki at Cannabinoid receptor 2 [4] greater than 5000 nM.

`CSC(=S)N1CC(C)(C)CS/C1=N\c1ccccc1C(C)(C)C`: the Ki at Cannabinoid receptor 2 [4] is 313 nM. This counts as sub-micromolar.

In turn, `CSC(=S)N1CC(C)(C)CS/C1=N\c1ccccc1Br` gave a Ki on Cannabinoid receptor 2 [4] of 371 nM.

`CSC(=S)N1CC(C)(C)CS/C1=N\c1ccccc1Oc1ccccc1` gave a Ki on Cannabinoid receptor 2 [4] of 2920 nM.

`CSC(=S)N1CC(C)(C)CS/C1=N\c1ccccc1-c1ccccc1`: at Cannabinoid receptor 2 [4], affinity was put at a Ki of 989 nM.
